From patent publication US12116636B2, “Methods for evaluating tumor cell spheroids using 3D microfluidic cell culture device” (Dana-Farber Cancer Institute, Inc., priority 2017, dated 2024) come the findings set out here.

The assay deals with PDOTS. The assay is described as follows: Bead-based cytokine profiling of PDOTS conditioned media. It counts as cell-based, human. As to the method:
Fresh tumor specimens (murine and human patients) were received in media (DMEM) on ice and minced in a 10 cm dish (on ice) using sterile forceps and scalpel. Minced tumor was resuspended in DMEM (4.5 mM glucose, […] sodium pyruvate, 1:100 penicillin-streptomycin) (Coming CellGro, Manassas, VA)+10% FBS (Gemini Bio-Products, West Sacramento, CA), 100 U/mL collagenase type IV (Life Technologies, Carlsbad, CA), and 15 mM HEPES (Life Technologies, Carlsbad, CA), except for CT26 tumors that were prepared in RPMI. Samples were pelleted and resuspended in 10-20 mL media. Red blood cells were removed from visibly bloody samples using RBC Lysis Buffer (Boston Bio-Products, Ashland, MA). […]
Two multiplex assays were performed utilizing a bead-based immunoassay approach, the Bio-Plex Pro™ Human Cytokine 40-plex Assay (Cat #171AK99MR2) and Bio-Plex Pro™ Mouse Cytokine Panel 1, 23-plex (Cat #M60009RDPD) on a Bio-plex 200 system (Cat #171000201). […] Fold changes relative to the MDOT/PDOT control were calculated and plotted as log 2FC. Lower and upper limits of quantitation (LLOQ/ULOQ) were imputed from standard curves for cytokines above or below detection. […]

With pembrolizumab [PD-1 blockade], where the note is “Day 3 cytokine release, n=28”, the “PDOTS samples with upregulation of CCL19 and CXCL13” value is reported as 23/28.

For ipilimumab [CTLA-4 blockade], under “Day 3, relative to untreated control”, the “CCL19/CXCL13 induction in PDOTS” value is “comparatively minimal”.
